From PMC11255867 (Protein Science : A Publication of the Protein Society, 2024)

Target: T1, Gaussia luciferase (GLuc) (Gaussia princeps (in: crustaceans), UniProt Q9BLZ2)
T1 sequence (Q9BLZ2 18-185): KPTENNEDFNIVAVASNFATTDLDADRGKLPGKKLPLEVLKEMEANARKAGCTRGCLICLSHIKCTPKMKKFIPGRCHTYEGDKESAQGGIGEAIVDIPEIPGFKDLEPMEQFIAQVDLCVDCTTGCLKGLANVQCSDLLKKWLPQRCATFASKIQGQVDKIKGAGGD
Experiment: SDS-PAGE adduct formation
Type: biochemical
Details: suicide inhibitor, covalent; oxidized without light; 20-fold molar excess, up to 24 h; 50 mM Tris-HCl pH 8.0

O=c1c(Cc2ccco2)nc2c(Cc3ccccc3)[nH]c(-c3ccccc3)cn1-2 [furimazine]
SDS-PAGE adduct formation; loss of luminescence with coelenterazine: FRZ is a suicide inhibitor of GLuc as it does not produce light with GLuc
